Test results reported in publication PMC8955307, “Nucleobase-Derived Nitrones: Synthesis and Antioxidant and Neuroprotective Activities in an In Vitro Model of Ischemia–Reperfusion” (International Journal of Molecular Sciences, 2022).

Tests used:
[1] = Reducing ability: interaction with DPPH; conditions: tested at 100 µM
[2] = Inhibition of lipid peroxidation (ILPO), AAPH protocol with sodium linoleate; conditions: tested at 100 µM
Experimental: The reactants consisting of 10 µL (16 mM) sodium linoleate, 10 µL of the tested nitrones in DMSO (final concentration 100 µM), 50 µL of AAPH ([…]) as a free radical initiator, 930 µL phosphate buffer pH 7.4 (0.05 M) at 37 °C under air, were mixed and the reaction’s result (as absorbance value) was recorded at 234 nm in comparison to PBN as a reference.

[3] = biological target: T1, Soybean Lipoxygenase (SLOX) (Glycine max, UniProt P08170); test: In vitro inhibition of soybean lipoxygenase (UV absorbance-based enzyme assay); format: biochemical; conditions: for IC50: soybean LOX, sodium linoleate substrate, pH 9
T1 sequence (P08170 1-839): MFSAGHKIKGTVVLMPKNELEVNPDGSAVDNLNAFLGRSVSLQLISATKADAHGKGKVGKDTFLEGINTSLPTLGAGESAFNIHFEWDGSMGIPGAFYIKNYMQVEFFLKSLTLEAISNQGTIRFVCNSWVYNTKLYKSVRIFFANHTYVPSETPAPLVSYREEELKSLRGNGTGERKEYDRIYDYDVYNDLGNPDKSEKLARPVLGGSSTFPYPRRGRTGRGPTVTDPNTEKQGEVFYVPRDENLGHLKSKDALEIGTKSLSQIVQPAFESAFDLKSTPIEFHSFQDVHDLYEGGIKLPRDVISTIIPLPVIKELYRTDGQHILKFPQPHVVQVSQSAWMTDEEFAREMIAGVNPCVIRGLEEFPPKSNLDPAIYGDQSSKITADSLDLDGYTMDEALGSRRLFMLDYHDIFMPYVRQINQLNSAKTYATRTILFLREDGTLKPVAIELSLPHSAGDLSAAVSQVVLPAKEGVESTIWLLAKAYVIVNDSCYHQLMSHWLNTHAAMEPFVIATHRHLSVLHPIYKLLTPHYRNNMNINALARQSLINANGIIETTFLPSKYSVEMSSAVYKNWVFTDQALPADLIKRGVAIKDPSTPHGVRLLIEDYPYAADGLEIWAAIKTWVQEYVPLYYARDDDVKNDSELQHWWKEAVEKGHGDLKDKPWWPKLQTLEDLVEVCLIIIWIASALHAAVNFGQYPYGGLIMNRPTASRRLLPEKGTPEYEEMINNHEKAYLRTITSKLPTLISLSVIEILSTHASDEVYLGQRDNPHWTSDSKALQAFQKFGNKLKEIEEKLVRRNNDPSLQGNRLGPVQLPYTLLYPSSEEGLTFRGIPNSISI
Experimental: The experimental conditions followed our previously reported protocol. Sodium linoleate was used as a substrate (0.1 mM) with 0.2 mL of the saline solution of SLOX (1/9 × 10^−4 w/v) in the Tris buffer pH 9.

[4] = system: human neuroblastoma SH-SY5Y cells; test: Basal neurotoxicity: cell viability under basal conditions; format: cell-based
Experimental: Cell viability measurements were carried out in human neuroblastoma cells SHSY5Y using 96-well culture plates, containing about 0.5–1 × 10^5 cells/well, after the OGD-R24h or control treatment including 0.01–1000 µM of the different testing compounds (nitrones 9a–g, PBN, and NAC), utilizing the Cell Proliferation Kit II (XTT), Sigma Aldrich, Madrid, Spain, which determines the culture’s metabolic capacity, as described in [21, 22]. XTT solution (0.3 mg/mL final concentration) was added to the seeded cells, incubated for 2 h at 37 °C with 5% CO2 and 95% air (v/v), and a spectrophotometer reader (Biotek Power-Wave XS microplate-reader (BioTek Instruments, Madrid, Spain) was used to register the absorbance at 450 nm (reference 650 nm) of the soluble formazan product generated. 100% viability was set by control normoxic cells treated with medium only, and control cells were added 0.001–1% DMSO in every assay.

| IC50 [3] [µM] | melting point | LOX (%) inhibition ([3]; tested at 100 µM) [%] | SMILES | DPPH (%) [1] [%] | ILPO (%) [2] [%] | Neurotoxic effects at basal level (cell viability) [4] |
| --- | --- | --- | --- | --- | --- | --- |
| 79 | 182 °C (dec.) | – | Cc1cn(C/C=[N+](/C)[O-])c(=O)[nH]c1=O [9b] | 11 | 55 | – |
| 35 | 180 °C (dec.) | – | C/[N+]([O-])=C/Cn1cc(Br)c(=O)[nH]c1=O [9d] | 6 | – | – |
| 65 | 180 °C (dec.) | – | C/[N+]([O-])=C/Cn1cc(Cl)c(=O)[nH]c1=O [9e] | 13 | 68 | – |
| 31 | 211 °C (dec.) | – | C/[N+]([O-])=C/Cn1cnc2c(N)ncnc21 [9f] | 9 | – | – |
| 57.5 | – | – | C/[N+]([O-])=C/Cn1cc(Br)c(=O)n(C/C=[N+](/C)[O-])c1=O [9i] | 76 | 71 | – |
| – | – | 23 | CC(C)(C)[N+]([O-])=Cc1ccccc1 [PBN, α-phenyl-N-tert-butylnitrone, reference compound] | – | 11 | did not show any neurotoxic effects |
